Results taken from patent US7470711B2, “Piperidinyl substituted cyclohexane-1,4-diamines” (Janssen Pharmaceutica N.V., priority 2005, dated 2008).
Where two headings read alike, the source gives them in different places.

Tests used:
α1d-AR = biological target: T1, α1d-AR (Homo sapiens, UniProt P25100); test: α1-Adrenergic receptor radio-ligand binding assay, α1d subtype; details: 125I-HEAT, membranes of COS-7 cells transfected with α1d subtype, rt 1 hr; read-out: Receptor Binding, Ki α1d-AR
T1 construct: expressed in transfected cells; host or cells: COS-7 cells (membranes)
T1 sequence (P25100 1-572): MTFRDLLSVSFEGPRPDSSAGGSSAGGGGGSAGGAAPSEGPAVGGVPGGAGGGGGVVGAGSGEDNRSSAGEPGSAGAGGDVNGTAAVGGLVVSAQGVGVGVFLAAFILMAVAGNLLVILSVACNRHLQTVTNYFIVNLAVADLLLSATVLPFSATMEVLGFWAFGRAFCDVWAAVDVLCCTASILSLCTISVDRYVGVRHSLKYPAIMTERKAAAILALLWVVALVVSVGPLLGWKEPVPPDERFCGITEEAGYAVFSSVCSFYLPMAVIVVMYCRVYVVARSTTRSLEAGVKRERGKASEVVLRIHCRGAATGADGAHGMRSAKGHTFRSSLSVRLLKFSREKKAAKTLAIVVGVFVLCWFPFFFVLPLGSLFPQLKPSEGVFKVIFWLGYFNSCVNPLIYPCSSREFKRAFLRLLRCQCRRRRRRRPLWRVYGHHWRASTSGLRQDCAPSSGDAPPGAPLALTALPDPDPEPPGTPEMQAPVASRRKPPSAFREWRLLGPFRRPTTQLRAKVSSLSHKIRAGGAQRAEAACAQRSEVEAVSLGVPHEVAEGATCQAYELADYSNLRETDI
Description: (§1) Membranes were prepared from COS-7 cells (African Green monkey kidney SV40-transformed cells) that had been transfected with one of the three α1-AR subtypes (Genbank accession number for the α1a subtype: AF013261; Genbank accession number for the α1b subtype: NM000679; Genbank accession number for the α1d subtype: NM000678) using the following method: COS cells from ten 100 mm tissue culture plates were scraped into a 5 mL volume of TE (a mixture of 50 mM Tris-HCl, 5 mM EDTA, pH 7.4). […] The disrupted cells were centrifuged at 1000×g for 10 min at 4° C. Supernatants were centrifuged at 34,500×g for 20 min at 4° C. The membrane pellets were suspended in a 2 mL volume of TNE (a mixture of 50 mM Tris-HCl, 5 mM EDTA and 150 mM NaCl at pH 7.4). An aliquot of the membrane suspension was stored at −70° C. until use. The protein concentration was determined using the BioRad “DC” protein assay kit following membrane solubilization with Triton X-100.
(§2) Triplicate determinations of radio-ligand binding in the presence of increasing concentrations of testing compound were made. The reagents were added to 96-well polypropylene plate wells. […] The plate was incubated at rt for 1 hr. The contents of the wells were filtered through a glass filter (type C) (GF/C) membrane Unifilter plate (Packard Instruments) using the Packard Filtermate cell harvester. The filter plates were dried in a vacuum oven for 30 min at 40° C. 25 μL Microscint 20 liquid scintillation fluid (Packard Instuments) was added to each well. The radioactive content was analyzed in the TopCount microplate scintillation counter (Packard Instruments).

α1a-AR = biological target: T2, α1a-AR (Homo sapiens, UniProt P35348); test: α1-Adrenergic receptor radio-ligand binding assay, α1a subtype
T2 construct: expressed in transfected cells; host or cells: COS-7 cells (membranes)
T2 sequence (P35348 1-455 isoform P35348-4): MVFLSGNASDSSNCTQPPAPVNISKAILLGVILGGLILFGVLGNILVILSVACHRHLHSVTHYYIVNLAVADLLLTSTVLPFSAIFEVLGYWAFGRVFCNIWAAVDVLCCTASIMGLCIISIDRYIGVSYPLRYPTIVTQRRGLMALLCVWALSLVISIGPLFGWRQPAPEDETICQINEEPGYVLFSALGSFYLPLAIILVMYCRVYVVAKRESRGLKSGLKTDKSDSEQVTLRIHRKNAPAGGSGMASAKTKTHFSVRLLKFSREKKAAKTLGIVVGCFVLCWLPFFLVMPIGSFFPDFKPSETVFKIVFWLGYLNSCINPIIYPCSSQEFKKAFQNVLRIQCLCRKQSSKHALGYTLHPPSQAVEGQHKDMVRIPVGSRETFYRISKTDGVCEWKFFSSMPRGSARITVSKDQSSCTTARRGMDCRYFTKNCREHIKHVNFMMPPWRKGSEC
Description: as §1, §2

α1b-AR = biological target: T3, α1b-AR (Homo sapiens, UniProt P35368); test: α1-Adrenergic receptor radio-ligand binding assay, α1b subtype; details: 125I-HEAT, membranes of COS-7 cells transfected with α1b subtype, rt 1 hr; read-out: Receptor Binding, Ki α1b-AR
T3 construct: expressed in transfected cells; host or cells: COS-7 cells (membranes)
T3 sequence (P35368 1-520): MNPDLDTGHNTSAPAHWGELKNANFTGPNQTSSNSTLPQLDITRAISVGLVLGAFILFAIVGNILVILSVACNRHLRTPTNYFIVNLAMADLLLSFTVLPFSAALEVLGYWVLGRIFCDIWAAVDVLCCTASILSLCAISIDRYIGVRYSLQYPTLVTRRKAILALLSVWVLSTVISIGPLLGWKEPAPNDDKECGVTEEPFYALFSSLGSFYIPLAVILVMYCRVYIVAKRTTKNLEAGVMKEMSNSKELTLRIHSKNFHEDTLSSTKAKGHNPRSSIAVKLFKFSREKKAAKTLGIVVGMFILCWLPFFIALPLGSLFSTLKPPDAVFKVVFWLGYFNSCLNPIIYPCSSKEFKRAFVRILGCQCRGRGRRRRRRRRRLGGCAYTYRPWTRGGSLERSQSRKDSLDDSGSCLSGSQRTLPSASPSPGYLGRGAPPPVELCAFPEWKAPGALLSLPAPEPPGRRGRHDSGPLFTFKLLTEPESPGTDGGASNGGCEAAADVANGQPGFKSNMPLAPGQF
Description: as §1, §2

[1] = test system: α1a and α1d subtypes over the α1b subtype; details: cited from earlier work
BPH patients = details: large clinical trials of BPH patients; cited from earlier work
[2] = test system: normal rats and rats with bladder hypertrophy secondary to outlet obstruction; details: intrathecally administered; cited from earlier work

| Structure (SMILES) | Ki (α1d-AR) | Ki (α1b-AR) | melting point | other results |
| --- | --- | --- | --- | --- |
| COc1ccc(S(=O)(=O)N[C@H]2CC[C@@H](N3CCC(c4ccccc4OCC(F)F)CC3)CC2)cc1OC [Cpd 29, N-cis-(4-{4-[2-(2,2-difluoro-ethoxy)-phenyl]-piperidin-1-yl}-cyclohexyl)-3,4-dimethoxy-benzenesulfonamide] | 0.0041 µM | 0.3 µM | 219 °C | Ki (α1a-AR; 125I-HEAT, membranes of COS-7 cells transfected with α1a subtype, rt 1 hr, read-out: Receptor Binding, Ki α1a-AR): 0.012 µM |
| COc1ccc(S(=O)(=O)N[C@H]2CC[C@H](N3CCC(c4ccccc4OCC(F)F)CC3)CC2)cc1OC [Cpd 30, N-trans-(4-{4-[2-(2,2-difluoro-ethoxy)-phenyl]-piperidin-1-yl}-cyclohexyl)-3,4-dimethoxy-benzenesulfonamide] | 0.086 µM | 0.681 µM | 197 °C | Ki (α1a-AR): 0.0305 µM |
| CCOc1ccccc1OCCN[C@H](C)Cc1ccc(OC)c(S(N)(=O)=O)c1 [Tamsulosin] |  |  |  | selectivity for the α1a and α1d subtypes over the α1b subtype [1]: about 15 fold; effect on obstructive and irritative symptoms (BPH patients): improvement in both obstructive and irritative symptoms; side effects seen (BPH patients): cardiovascular and erectile dysfunction side effects were seen |
| COc1cc2nc(N3CCN(C(=O)C4COc5ccccc5O4)CC3)nc(N)c2cc1OC (stereo not drawn) [doxazosin] |  |  |  | micturition pressure [2]: decrease in micturition pressure |
